Measurements taken from patent US20250179078A1, “INHIBITORS OF NLRP3” (PTC THERAPEUTICS, INC., priority 2022, published 2025).

target: T1, NLRP3 (Homo sapiens, UniProt Q96P20); assay: IL-1β Secretion Assay (NLRP3-dependent IL1β secretion in THP1 cells); type: cell-based; settings: PMA-differentiated THP-1 cells; compounds incubated 20 h; 2.5 μM Nigericin 3 h; HTRF IL-1β readout; read-out: IC50 IL-1β Inhibition
T1 construct: host or cells: THP-1 cells differentiated with PMA
Method: Monocytic THP-1 cells (ATCC: TIB-202) were maintained in growth media consisting of RPMI 1640 medium (ThermoFisher, Cat #11875-085), 10% FBS (ThermoFisher) and 0.05 mM β-mercaptoethanol (ThermoFisher, Cat #21985-023), according to the provider's instructions. The cell concentration was adjusted to 7.5×10^5 cells/mL, and plated in complete growth media with a final concentration of 100 ng/mL phorbol 12-myristate 13-acetate (PMA, Sigma #P8139). Cells were seeded at 100 µL/well into a 96-well cell culture plate (ThermoFisher Cat #165305) and allowed to differentiate for 24 h in a cell culture incubator at 37° C. with 5% CO2. Cells were washed 1× with 100 ul PBS and replaced with fresh RPMI+5% FBS. Compounds were serial diluted in DMSO with 3 fold dilution for a total of 7 concentrations. Diluted compounds were added to the cells at a ratio of 1:200 and incubated for 20 h. The NLRP3 inflammasome was activated with the addition of 2.5 μM Nigericin (Sigma: Cat #SML1779-1 ml), for 3 h. After incubation, 15 μL of conditioned media was removed and assayed for levels of IL-1β using the HTRF IL-1β assay kit (Cisbio: Cat #62HIL1BPEH) as per the manufacturer's instructions.
Compounds, once produced and prepared according to the present invention, can be assessed in variety of assays to characterize their activities. For example, NLRP3-dependent IL1β secretion was evaluated in THP1 cells. IC50 values of IL1β inhibition were calculated from the plot of percentage of inhibition versus the inhibitor concentration by a logistics fit. TABLE I depict examples of compounds according to generic Formula I. Data which is <1 nM is listed as *****; data 1-10 nM is listed as ****; data 10-100 nM is listed as ***, data 100-300 nM is listed as **, data ≥300 nM is listed as *.

T1 sequence (Q96P20 whole entry): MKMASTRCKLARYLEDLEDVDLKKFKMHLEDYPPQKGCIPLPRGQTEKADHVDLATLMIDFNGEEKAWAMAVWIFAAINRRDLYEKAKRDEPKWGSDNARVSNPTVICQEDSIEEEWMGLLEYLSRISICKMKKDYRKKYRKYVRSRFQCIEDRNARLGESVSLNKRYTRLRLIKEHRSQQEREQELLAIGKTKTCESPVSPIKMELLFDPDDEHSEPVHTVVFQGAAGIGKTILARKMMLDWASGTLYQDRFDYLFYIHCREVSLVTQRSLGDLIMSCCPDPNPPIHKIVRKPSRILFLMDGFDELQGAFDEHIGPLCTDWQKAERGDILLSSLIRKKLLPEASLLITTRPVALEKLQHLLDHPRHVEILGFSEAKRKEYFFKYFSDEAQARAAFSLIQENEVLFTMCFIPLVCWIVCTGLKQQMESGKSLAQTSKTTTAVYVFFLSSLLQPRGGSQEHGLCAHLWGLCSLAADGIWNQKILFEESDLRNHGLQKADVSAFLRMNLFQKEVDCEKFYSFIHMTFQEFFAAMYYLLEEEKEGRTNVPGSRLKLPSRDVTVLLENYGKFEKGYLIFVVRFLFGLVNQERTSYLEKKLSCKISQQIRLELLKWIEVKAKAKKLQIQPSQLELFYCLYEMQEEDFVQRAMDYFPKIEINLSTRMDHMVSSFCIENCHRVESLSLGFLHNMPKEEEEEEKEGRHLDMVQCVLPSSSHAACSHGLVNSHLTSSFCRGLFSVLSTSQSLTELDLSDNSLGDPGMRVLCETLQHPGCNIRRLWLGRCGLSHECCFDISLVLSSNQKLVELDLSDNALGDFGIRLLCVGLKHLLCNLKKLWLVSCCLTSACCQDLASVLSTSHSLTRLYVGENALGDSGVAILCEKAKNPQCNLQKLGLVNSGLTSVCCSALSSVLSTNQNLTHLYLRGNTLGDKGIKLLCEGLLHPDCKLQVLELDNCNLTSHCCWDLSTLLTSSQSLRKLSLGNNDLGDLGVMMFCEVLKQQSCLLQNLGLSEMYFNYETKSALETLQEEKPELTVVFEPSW

SMILES	IC50
COc1ccc(-c2nnc(NCC(C)(C)O)n3cccc23)c(OC(F)(F)F)c1 [Compound 66, 1-({1-[4-methoxy-2-(trifluoromethoxy)phenyl]pyrrolo[1,2-d][1,2,4]triazin-4-yl}amino)-2-methylpropan-2-ol]	10 to 100 nM
CN1CC[C@@H](O)[C@@H](Nc2nnc(-c3ccc(C(F)(F)F)cc3CC(F)(F)F)c3cncn23)C1 [Compound 289, (3S,4R)-1-methyl-3-({1-[2-(2,2,2-trifluoroethyl)-4-(trifluoromethyl)phenyl]imidazo[1,5-d][1,2,4]triazin-4-yl}amino)piperidin-4-ol]	1 to 10 nM
COc1ccc(-c2nnc(N[C@@H]3CCCC[C@@]3(C)O)n3cccc23)c(OC(F)(F)F)c1 (single isomer, unassigned) [Compound 181]	≥ 300 nM
CCN1CCC[C@@H](Nc2nnc(-c3ccc(Cl)cc3)c3cc(C)nn23)C1 [Compound 377, 4-(4-chlorophenyl)-N-[(3R)-1-ethylpiperidin-3-yl]-2-methylpyrazolo[1,5-d][1,2,4]triazin-7-amine]	1 to 10 nM
COc1ccc(-c2nnc(N[C@H]3C[C@@](C)(O)C3)n3cccc23)c(Cl)c1 [Compound 72, (1s,3s)-3-{[1-(2-chloro-4-methoxyphenyl)pyrrolo[1,2-d][1,2,4]triazin-4-yl]amino}-1-methylcyclobutan-1-ol]	10 to 100 nM
COc1ccc(-c2nnc(N[C@@H]3CCC[C@H](O)C3)n3cccc23)c(C2CC2)c1 [Compound 106, (1S,3R)-3-{[1-(2-cyclopropyl-4-methoxyphenyl)pyrrolo[1,2-d][1,2,4]triazin-4-yl]amino}cyclohexan-1-ol]	10 to 100 nM
COc1ccc(-c2nnc(NC3CCNC3=O)n3cncc23)c(CC(F)(F)F)c1 (centres unmarked) [Compound 238, 3-({1-[4-methoxy-2-(2,2,2-trifluoroethyl)phenyl]imidazo[1,5-d][1,2,4]triazin-4-yl}amino)pyrrolidin-2-one]	1 to 10 nM
COc1ccc(-c2nnc(N[C@@H]3CCOC[C@H]3O)n3nc(C)cc23)c(CC(F)(F)F)c1 [Compound 384, (3S,4R)-4-({4-[4-methoxy-2-(2,2,2-trifluoroethyl)phenyl]-2-methylpyrazolo[1,5-d][1,2,4]triazin-7-yl}amino)oxan-3-ol]	1 to 10 nM
Cc1ccc(-c2nnc(N[C@@H]3CCCN(C)C3)n3cncc23)c(C(F)(F)F)c1 [Compound 206, N-[(3R)-1-methylpiperidin-3-yl]-1-[4-methyl-2-(trifluoromethyl)phenyl]imidazo[1,5-d][1,2,4]triazin-4-amine]	< 1 nM

Other lines, results leading:

IC50	SMILES
< 1 nM	CCN1CCC[C@@H](Nc2nnc(-c3ccc(C(F)(F)F)cc3OC(F)(F)F)c3cccn23)C1 [Compound 119, N-[(3R)-1-ethylpiperidin-3-yl]-1-[2-(trifluoromethoxy)-4-(trifluoromethyl)phenyl]pyrrolo[1,2-d][1,2,4]triazin-4-amine]
10 to 100 nM	O[C@@H]1CCCC[C@@H]1Nc1nnc(-c2ccc(C(F)(F)F)cc2OC(F)F)c2cccn12 [Compound 79, (1R,2S)-2-({1-[2-(difluoromethoxy)-4-(trifluoromethyl)phenyl]pyrrolo[1,2-d][1,2,4]triazin-4-yl}amino)cyclohexan-1-ol]
1 to 10 nM	CN1C[C@@H](O)C[C@@H](Nc2nnc(-c3ccc(C(F)(F)F)cc3OC(F)F)c3cccn23)C1 [Compound 98, (3S,5R)-5-({1-[2-(difluoromethoxy)-4-(trifluoromethyl)phenyl]pyrrolo[1,2-d][1,2,4]triazin-4-yl}amino)-1-methylpiperidin-3-ol]
< 1 nM	COc1ccc(-c2nnc(N[C@@H]3CCCN(CCO)C3)n3cccc23)c(OC(F)(F)F)c1 [Compound 61, 2-[(3R)-3-({1-[4-methoxy-2-(trifluoromethoxy)phenyl]pyrrolo[1,2-d][1,2,4]triazin-4-yl}amino)piperidin-1-yl]ethan-1-ol]
10 to 100 nM	O[C@H]1CCCC[C@@H]1Nc1nnc(-c2ccc(C(F)(F)F)cc2OC(F)F)c2cccn12 [Compound 78, (1S,2S)-2-({1-[2-(difluoromethoxy)-4-(trifluoromethyl)phenyl]pyrrolo[1,2-d][1,2,4]triazin-4-yl}amino)cyclohexan-1-ol]
